From US6914045B2, “Glycopeptide antibiotics” (Wyeth Holdings Corporation, priority 2001, dated 2005)
≈ marks a conversion by molar mass, not a printed value.

What was measured:
[1] = system: Staphylococcus aureus-SMITH (GC 4543); test: acute lethal infection in mice; assay type: in vivo; details: acute lethal infection, female CD-1 mice, intraperitoneal challenge, intravenous 30 min. after infection, 7 day survival
How it was run: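 Mice (female CD-1, 20+/−2 gm) receive bacteria ip in broth or hog gastric mucin, then test agent iv after 30 min. Median effective dose is calculated from 7 day survival pooled across 3 tests.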

[2] = system: Escherichia coli; test: in vitro antibacterial evaluation, MIC by broth dilution; assay type: cell-based; details: 18 hours at 35° C.
How it was run: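 Broth dilution in Muller-Hinton II medium per NCCLS standard M7-A2, with an inoculum of 5×10^5 CFU/mL and antibiotic tested over 64-0.06 μg/mL. MIC was taken as the lowest concentration inhibiting visible growth.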

[3] = system: Staphylococcus sp.; test: as above; assay type: cell-based; details: broth dilution, 18 hours at 35° C.
How it was run: (§1)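 Inoculum 5×10^5 CFU/mL; concentrations 64 to 0.06 μg/mL; MIC defined as lowest inhibitory level. Conducted by broth dilution under NCCLS guidelines.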

[4] = system: Streptococcus sp.; test: as above; assay type: cell-based; details: broth dilution, 18 hours at 35° C.
How it was run: as §1

[5] = system: Enterococcus sp.; test: as above; assay type: cell-based; details: broth dilution, 18 hours at 35° C.
How it was run: as §1

[6] = anatomic pathology (histopathology of heart and kidney) in mice; assay type: in vivo; details: CD-1 mice, 20 mg/kg intravenously daily for 9 days, necropsy day 10, microscopic histopathology
Description: Samples of tissues from necropsied mice were formalin-fixed, paraffin-embedded, sectioned, stained with hematoxylin and eosin, and examined microscopically. Histopathologic findings were recorded. These findings were subjectively graded on a scale corresponding to slight, mild, moderate, marked and severe as compared to untreated controls.

CC(c1ccccc1)C1NC(=O)CNC(=O)C(CO)NC(=O)C(C(O)C2CN(Cc3ccc(C(C)(C)C)cc3)C(=N)N2C2OC(CO)C(O)C(O)C2O)NC(=O)C(C(O)C2CNC(=N)N2)NC(=O)C(Cc2ccc(OC3OC(CO)C(OC4OC5COC6(OC5C(O)C4O)C4CC5CC(C4)CC6C5)C(O)C3O)cc2)NC1=O (centres unmarked) [Example 77]
median effective dose (ED50), Staphylococcus aureus-SMITH (GC 4543) [1]: 4 mg/kg | MIC Escherichia coli (ATCC 25922) [2]: >128 µg/mL | MIC Escherichia coli (GC 4559) [2]: >128 µg/mL | MIC Escherichia coli (GC 4560) [2]: 4 µg/mL (≈ 2.54 µM) | MIC Staphylococcus aureus (GC 1131) ([3]; strain GC 1131): 16 µg/mL (≈ 10.2 µM) | MIC Staphylococcus aureus (GC 3053) ([3]; strain GC 3053): 16 µg/mL (≈ 10.2 µM) | MIC Staphylococcus aureus (GC 4541) ([3]; strain GC 4541): 4 to 8 µg/mL | MIC Staphylococcus aureus-SMITH (GC 4543) ([3]; strain GC 4543): 8 µg/mL (≈ 5.08 µM) | MIC Staphylococcus aureus (GC 4544) ([3]; strain GC 4544): 16 µg/mL (≈ 10.2 µM) | MIC Staphylococcus aureus (GC 4545) ([3]; strain GC 4545): 8 µg/mL (≈ 5.08 µM) | MIC Staphylococcus haemolyticus (GC 4546) ([3]; strain GC 4546): 4 to 8 µg/mL | MIC Coagulase Negative Staphylococcus (GC 4547) ([3]; strain GC 4547): 4 µg/mL (≈ 2.54 µM) | MIC Coagulase Negative Staphylococcus (GC 4548) ([3]; strain GC 4548): 4 µg/mL (≈ 2.54 µM) | MIC Coagulase Negative Staphylococcus (GC 4549) ([3]; strain GC 4549): 4 to 8 µg/mL | MIC Coagulase Negative Staphylococcus (GC 4551) ([3]; strain GC 4551): 8 µg/mL (≈ 5.08 µM) | MIC Coagulase Negative Staphylococcus (GC 6257) ([3]; strain GC 6257): 2 µg/mL (≈ 1.27 µM) | MIC Streptococcus agalactiae (GC 4564) [4]: 1 µg/mL (≈ 0.635 µM) | MIC Streptococcus pneumoniae (ATCC 6301) [4]: 2 µg/mL (≈ 1.27 µM) | MIC Streptococcus pneumoniae (GC 1894) [4]: 0.25 to 0.5 µg/mL | MIC Streptococcus pneumoniae (GC 4565) [4]: 2 to 4 µg/mL | MIC Streptococcus pyogenes (GC 4563) [4]: 1 µg/mL (≈ 0.635 µM) | MIC Streptococcus pneumoniae (ATCC 6301) ([4]; strain ATCC 6301): 2 µg/mL (≈ 1.27 µM) | MIC Streptococcus pyogenes (GC 4563) ([4]; strain GC 4563): 1 µg/mL (≈ 0.635 µM) | MIC Streptococcus agalactiae (GC 4564) ([4]; strain GC 4564): 1 µg/mL (≈ 0.635 µM) | MIC Streptococcus pneumoniae (GC 4565) ([4]; strain GC 4565): 2 to 4 µg/mL | MIC Enterococcus avium (GC 4558) ([5]; Enterococcus avium (GC 4558)): 4 µg/mL (≈ 2.54 µM) | MIC Enterococcus faecalis (ATCC 29212) ([5]; Enterococcus faecalis (ATCC 29212)): 16 µg/mL (≈ 10.2 µM) | MIC Enterococcus faecalis (GC 4552) ([5]; Enterococcus faecalis (GC 4552)): 16 µg/mL (≈ 10.2 µM) | MIC Enterococcus faecalis (GC 4553) ([5]; Enterococcus faecalis (GC 4553)): 8 µg/mL (≈ 5.08 µM) | MIC Enterococcus faecalis (GC 6189) ([5]; Enterococcus faecalis (GC 6189)): 16 µg/mL (≈ 10.2 µM) | MIC Enterococcus faecium (GC 2243) ([5]; Enterococcus faecium (GC 2243)): 8 µg/mL (≈ 5.08 µM) | MIC Enterococcus faecium (GC 4556) ([5]; Enterococcus faecium (GC 4556)): 16 µg/mL (≈ 10.2 µM) | MIC Enterococcus faecium (GC 4557) ([5]; Enterococcus faecium (GC 4557)): 1 to 2 µg/mL | MIC Enterococcus avium (GC 4558) [5]: 4 µg/mL (≈ 2.54 µM) | MIC Enterococcus faecalis (ATCC 29212) [5]: 16 µg/mL (≈ 10.2 µM) | MIC Enterococcus faecalis (GC 2242) [5]: 16 µg/mL (≈ 10.2 µM) | MIC Enterococcus faecalis (GC 2691) [5]: 16 µg/mL (≈ 10.2 µM) | MIC Enterococcus faecalis (GC 3059) [5]: 16 µg/mL (≈ 10.2 µM) | MIC Enterococcus faecalis (GC 4552) [5]: 16 µg/mL (≈ 10.2 µM) | MIC Enterococcus faecalis (GC 4553) [5]: 8 µg/mL (≈ 5.08 µM) | MIC Enterococcus faecalis (GC 4554) [5]: 16 to 32 µg/mL | MIC Enterococcus faecalis (GC 6189) [5]: 16 µg/mL (≈ 10.2 µM) | MIC Enterococcus faecium (GC 2243) [5]: 8 µg/mL (≈ 5.08 µM) | MIC Enterococcus faecium (GC 4556) [5]: 16 µg/mL (≈ 10.2 µM) | MIC Enterococcus faecium (GC 4557) [5]: 1 to 2 µg/mL | MIC Enterococcus faecalis (GC 2242) ([5]; strain GC 2242): 16 µg/mL (≈ 10.2 µM) | MIC Enterococcus faecalis (GC 2691) ([5]; strain GC 2691): 16 µg/mL (≈ 10.2 µM) | MIC Enterococcus faecalis (GC 3059) ([5]; strain GC 3059): 16 µg/mL (≈ 10.2 µM) | Anatomical Pathology (Day 10), Heart [6]: 0 | Anatomical Pathology (Day 10), Kidney [6]: 0
